From patent US12215112B2, “CD151 inhibitors” (ESFAM BIOTECH PTY LTD, priority 2020, dated 2025)
pIC50: −log10 of the molar value.

tested on: PC3 cells; test: xCELLigence RTCA real-time cell invasion assay (CIM plate, Matrigel) on PC3 prostate cancer cells; format: cell-based; conditions: Homo sapiens, PC-3, compound 25 uM to 1 uM, cell index monitored for 72 hours, four-parameter dose-response curve, read-out: IC50, Effect of compounds on the invention on prostate cancer cells
Description: The media antibiotics and serum were purchased from Invitrogen (Life Technologies). PC3 cells were purchased from ATCC (Granville, NSW, Australia). PC3 cells were expanded in cell culture T75 flasks with vented cap and then preserved in low passage number. The medium used for PC3 cells was RPMI (GlutaMAX) supplemented with 10% FCS and 1% penicillin/streptomycin (culture media). The cells were maintained at 37° C. in a humidified 95% (v/v) air/5% (v/v) CO2 environment and were grown up to 80% confluence.
XCELLigence® real-time cell analysis (RTCA) instrument (ACEA Biosciences), 16-well ACEA CIM-Plates, 16-well ACEA E-Plat and assembly tool were purchased from ELITechGroup empowering IVD (Braeside, Australia). The Matrigel was purchased from Corning (Australia).
To measure cell invasion under compound treatment the upper chamber of the CIM plate was coated with 5% Matrigel diluted in SF RPMI (20 μl) and incubated in a 37° C. tissue culture incubator for four hours. Using the assembly tool to support the chambers the lower chamber was filled with (160 μl) of culture media containing the compound in specific concertation from 25 uM to 1 uM and two controls (DMSO 0.1% and ESFAM 4C 10 uM) (see the schematic in FIG. 1). Once the upper chamber was placed on the top of the lower chamber it was loaded with (40 μl) serum-free (SF) RPMI containing the compound as previously stated. After one hour calibration in 37° C., plates were placed into the xCELLigence station, and the base-line electric impedance was measured to confirm that all wells and connections were working properly. In case of connection problem, the software automatically informs the researcher about the nature of the problem in the message section. Subsequently cells were trypsinized and upon harvesting and counting they were diluted in SF RPMI to desired density (3×10^4) and seeded (100 μl) in the wells. After 30 minutes of incubation in room-temperature to allow cell attachment the plates were loaded in the xCELLigence RTCA DP machine. The cell invasion was monitored in real-time for the duration of 72 hours. […]
The xCELLigence system automatically monitored the electrical impedance value of each well and expressed as a cell index (CI) value for the duration of 72 hours. The data for treatments was automatically grouped as the mean±standard deviation. The software version used in these experiments is 1.2.1. The electronic record of the experimental data is automatically saved in file that cannot be altered or changed by the researcher.
Statistical analysis was performed using Microsoft® Office EXCEL and GraphPad Prism 7. The IC50 was calculated from the four-parameter dose-response curve (log(inhibitor) vs. response-variable slopes). Where the row-data was inserted in GraphPad Prism 7 (Dose response x-log(dose)) and analysed for XY nonlinear regression (curve fit), dose response-inhibition, log(inhibitor) vs response variable slope (four parameters). For the IC90 calculation the log(IC50)=log(IC90)-(1/HillSlope)*log(9) equation was used in EXCEL based on the raw data extracted from xCELLigence system and the dose-response curve.

Point of comparison: `CN(Cc1ccccc1)c1cc(-c2cn[nH]c2)n2nc(C(N)=O)cc2n1` [Compound 2, 5-(benzyl(methyl)amino)-7-(1H-pyrazol-4-yl)pyrazolo[1,5-a]pyrimidine-2-carboxamide], pIC50 4.77. Against it:
- CC(C)(C)c1c(C(=O)Nc2cccc(O)c2)nn2c(-c3cn[nH]c3)cc(N3Cc4ccccc4C3)nc12 [Cmpd 85] — 0.42 log units higher, 5.19
- CN(Cc1ccccc1)c1cc(-c2cn[nH]c2)n2nc(C(=O)Nc3cccc(O)c3)cc2n1 [Compound 1, 5-(benzyl(methyl)amino)-N-(3-hydroxyphenyl)-7-(1H-pyrazol-4-yl)pyrazolo[1,5-a]pyrimidine-2-carboxamide] — 0.39 log units higher, 5.16
- CN(Cc1ccccc1)c1cc(-c2cn[nH]c2)n2nc(C(=O)NCc3ccccc3)cc2n1 [Compound 3, N-benzyl-5-(benzyl(methyl)amino)-7-(1H-pyrazol-4-yl)pyrazolo[1,5-a]pyrimidine-2-carboxamide] — within 0.2 log units, 4.92
- CN(Cc1ccccc1)c1cc(-c2cn[nH]c2)n2nc(C(=O)Nc3ccc(O)cc3)cc2n1 [Compound 4, 5-(benzyl(methyl)amino)-N-(4-hydroxyphenyl)-7-(1H-pyrazol-4-yl)pyrazolo[1,5-a]pyrimidine-2-carboxamide] — 1.32 log units higher, 6.09
- COc1cccc(NC(=O)c2cc3nc(N(C)Cc4ccccc4)cc(-c4cn[nH]c4)n3n2)c1 [Compound 5, 5-(benzyl(methyl)amino)-N-(3-methoxyphenyl)-7-(1H-pyrazol-4-yl)pyrazolo[1,5-a]pyrimidine-2-carboxamide] — 1.15 log units higher, 5.92
- CN(Cc1ccccc1)c1cc(-c2cn[nH]c2)n2nc(C(=O)Nc3cccnc3)cc2n1 [Compound 6, 5-(benzyl(methyl)amino)-7-(1H-pyrazol-4-yl)-N-(pyridin-3-yl)pyrazolo[1,5-a]pyrimidine-2-carboxamide] — within 0.2 log units, 4.93
- CN(Cc1ccccc1)c1cc(-c2cn[nH]c2)n2nc(C(=O)Nc3ccncc3)cc2n1 [Compound 7, 5-(benzyl(methyl)amino)-7-(1H-pyrazol-4-yl)-N-(pyridin-4-yl)pyrazolo[1,5-a]pyrimidine-2-carboxamide] — 0.25 log units higher, 5.02
- COc1cc(NC(=O)c2cc3nc(N(C)Cc4ccccc4)cc(-c4cn[nH]c4)n3n2)ccn1 [Compound 8, 5-(benzyl(methyl)amino)-N-(2-methoxypyridin-4-yl)-7-(1H-pyrazol-4-yl)pyrazolo[1,5-a]pyrimidine-2-carboxamide] — 0.51 log units higher, 5.28
- COc1cc(NC(=O)c2cc3nc(N(C)Cc4ccccc4)cc(-c4cn[nH]c4)n3n2)cc(OC)c1 [Compound 9, 5-(benzyl(methyl)amino)-N-(3,5-dimethoxyphenyl)-7-(1H-pyrazol-4-yl)pyrazolo[1,5-a]pyrimidine-2-carboxamide] — 0.60 log units higher, 5.37
- Cc1noc(C)c1NC(=O)c1cc2nc(N(C)Cc3ccccc3)cc(-c3cn[nH]c3)n2n1 [Compound 10, 5-(benzyl(methyl)amino)-N-(3,5-dimethylisoxazol-4-yl)-7-(1H-pyrazol-4-yl)pyrazolo[1,5-a]pyrimidine-2-carboxamide] — 0.66 log units higher, 5.43
- CN(Cc1ccccc1)c1cc(-c2cn[nH]c2)n2nc(C(=O)Nc3cn[nH]c3)cc2n1 [Compound 11, 5-(benzyl(methyl)amino)-N,7-di(1H-pyrazol-4-yl)pyrazolo[1,5-a]pyrimidine-2-carboxamide] — 0.24 log units higher, 5.01
- CN(Cc1ccccc1)c1cc(-c2cn[nH]c2)n2nc(C(=O)Nc3ccc(C#N)cc3)cc2n1 [Compound 12, 5-(benzyl(methyl)amino)-N-(4-cyanophenyl)-7-(1H-pyrazol-4-yl)pyrazolo[1,5-a]pyrimidine-2-carboxamide] — 0.41 log units higher, 5.18
- CN(Cc1ccccc1)c1cc(-c2cn[nH]c2)n2nc(C(=O)Nc3cccc(C#N)c3)cc2n1 [Compound 13, 5-(benzyl(methyl)amino)-N-(3-cyanophenyl)-7-(1H-pyrazol-4-yl)pyrazolo[1,5-a]pyrimidine-2-carboxamide] — 0.56 log units higher, 5.33
- COc1cccc(NC(=O)c2cc3nc(N(C)[C@@H](C)c4ccccc4)cc(-c4cn[nH]c4)n3n2)c1 [Compound 14, (S)—N-(3-methoxyphenyl)-5-(methyl(1-phenylethyl)amino)-7-(1H-pyrazol-4-yl)pyrazolo[1,5-a]pyrimidine-2-carboxamide] — 0.94 log units higher, 5.71
- C[C@@H](c1ccccc1)N(C)c1cc(-c2cn[nH]c2)n2nc(C(=O)Nc3cccc(O)c3)cc2n1 [Compound 15, (S)—N-(3-hydroxyphenyl)-5-(methyl(1-phenylethyl)amino)-7-(1H-pyrazol-4-yl)pyrazolo[1,5-a]pyrimidine-2-carboxamide] — 1.22 log units higher, 5.99
- C[C@@H](c1ccccc1)N(C)c1cc(-c2cn[nH]c2)n2nc(C(=O)Nc3ccccc3)cc2n1 [Compound 16, (S)-5-(methyl(1-phenylethyl)amino)-N-phenyl-7-(1H-pyrazol-4-yl)pyrazolo[1,5-a]pyrimidine-2-carboxamide] — 0.95 log units lower, 3.82
- C[C@@H](c1ccccc1)N(C)c1cc(-c2cn[nH]c2)n2nc(C(N)=O)cc2n1 [Compound 17, (S)-5-(methyl(1-phenylethyl)amino)-7-(1H-pyrazol-4-yl)pyrazolo[1,5-a]pyrimidine-2-carboxamide] — 0.24 log units higher, 5.01
- CC(C)Oc1cccc(NC(=O)c2cc3nc(N(C)Cc4ccccc4)cc(-c4cn[nH]c4)n3n2)c1 [Compound 18, 5-(benzyl(methyl)amino)-N-(3-isopropoxyphenyl)-7-(1H-pyrazol-4-yl)pyrazolo[1,5-a]pyrimidine-2-carboxamide] — 0.33 log units higher, 5.10
- CN(Cc1ccccc1)c1cc(-c2cn[nH]c2)n2nc(C(=O)Nc3cccc(OC(F)F)c3)cc2n1 [Compound 19, 5-(benzyl(methyl)amino)-N-(3-(difluoromethoxy)phenyl)-7-(1H-pyrazol-4-yl)pyrazolo[1,5-a]pyrimidine-2-carboxamide] — within 0.2 log units, 4.89
- CN(C)c1cccc(NC(=O)c2cc3nc(N(C)Cc4ccccc4)cc(-c4cn[nH]c4)n3n2)c1 [Compound 20, 5-(benzyl(methyl)amino)-N-(3-(dimethylamino)phenyl)-7-(1H-pyrazol-4-yl)pyrazolo[1,5-a]pyrimidine-2-carboxamide] — 0.68 log units higher, 5.45
- CN1CCN(c2cccc(NC(=O)c3cc4nc(N(C)Cc5ccccc5)cc(-c5cn[nH]c5)n4n3)c2)CC1 [Compound 22, 5-(benzyl(methyl)amino)-N-(3-(4-methylpiperazin-1-yl)phenyl)-7-(1H-pyrazol-4-yl)pyrazolo[1,5-a]pyrimidine-2-carboxamide] — 0.66 log units higher, 5.43
- O=C(Nc1ccccc1)c1cc2nc(N3Cc4ccccc4C3)cc(-c3cn[nH]c3)n2n1 [Compound 23, 5-(isoindolin-2-yl)-N-phenyl-7-(1H-pyrazol-4-yl)pyrazolo[1,5-a]pyrimidine-2-carboxamide] — 0.78 log units higher, 5.55
- O=C(Nc1cccc(O)c1)c1cc2nc(N3Cc4ccccc4C3)cc(-c3cn[nH]c3)n2n1 [Compound 24, N-(3-hydroxyphenyl)-5-(isoindolin-2-yl)-7-(1H-pyrazol-4-yl)pyrazolo[1,5-a]pyrimidine-2-carboxamide] — 1.08 log units higher, 5.85
- COc1cccc(NC(=O)c2cc3nc(N4Cc5ccccc5C4)cc(-c4cn[nH]c4)n3n2)c1 [Compound 25, 5-(isoindolin-2-yl)-N-(3-methoxyphenyl)-7-(1H-pyrazol-4-yl)pyrazolo[1,5-a]pyrimidine-2-carboxamide] — 0.84 log units higher, 5.61
- O=C(Nc1cccc(OC(F)(F)F)c1)c1cc2nc(N3Cc4ccccc4C3)cc(-c3cn[nH]c3)n2n1 [Compound 26, 5-(isoindolin-2-yl)-7-(1H-pyrazol-4-yl)-N-(3-(trifluoromethoxy)phenyl)pyrazolo[1,5-a]pyrimidine-2-carboxamide] — 0.24 log units higher, 5.01
- CCOc1cccc(NC(=O)c2cc3nc(N4Cc5ccccc5C4)cc(-c4cn[nH]c4)n3n2)c1 [Compound 27, N-(3-ethoxyphenyl)-5-(isoindolin-2-yl)-7-(1H-pyrazol-4-yl)pyrazolo[1,5-a]pyrimidine-2-carboxamide] — 0.93 log units higher, 5.70
- CC(C)Oc1cccc(NC(=O)c2cc3nc(N4Cc5ccccc5C4)cc(-c4cn[nH]c4)n3n2)c1 [Compound 28, 5-(isoindolin-2-yl)-N-(3-isopropoxyphenyl)-7-(1H-pyrazol-4-yl)pyrazolo[1,5-a]pyrimidine-2-carboxamide] — 0.92 log units higher, 5.69
